The results in this text go back to PubChem BioAssay (NCI).

Among the test systems are SK-MEL-5 melanoma; MOLT-4 leukemia; COLO 205 colon; LOX IMVI melanoma; RPMI-8226 leukemia; 786-0 renal; ACHN renal; CAKI-1 renal; OVCAR-5 ovarian; HOP-92 NSCLC; HOP-62 NSCLC; MALME-3M melanoma; IGROV1 ovarian; A498 renal; NCI-H226 lung; U251 CNS; MDA-MB-231 breast.
What all share (experiment): inhibition of tumour cell growth, NCI panel, 48 h

Structures are written as SMILES.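 Cultured in 96-well plates, cells were exposed to test compound for 48 hours across five concentrations. The concentration for full growth arrest is given as TGI.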

As to `COc1ccc(/C=C2\C[C@H]3[C@@H]4CC=C5C[C@@H](OC(C)=O)CC[C@]5(C)[C@H]4CC[C@]3(C)\C2=N\O)cc1OC`, the TGI in the assay with SK-MEL-5 melanoma was 9.83 µM; with MOLT-4 leukemia it was more than 100 µM; with COLO 205 colon, 27.1 µM; with LOX IMVI melanoma, more than 100 µM; in the assay on RPMI-8226 leukemia it was 88.2 µM; in the assay with 786-0 renal it was more than 100 µM. For the same compound, the TGI with ACHN renal, in the assay with CAKI-1 renal, in the assay with OVCAR-5 ovarian, in the assay on HOP-92 NSCLC, in the assay with HOP-62 NSCLC and with MALME-3M melanoma was more than 100 µM throughout. For the same compound, the TGI is more than 100 µM with IGROV1 ovarian, more than 100 µM in the assay on A498 renal and 56.5 µM in the assay with NCI-H226 lung.

In the case of `O=C(c1ccco1)N(C(=S)N1CCN(c2ccccc2)CC1)C1CCCCC1`, the TGI in the assay on SK-MEL-5 melanoma, in the assay on MOLT-4 leukemia, with COLO 205 colon, in the assay on LOX IMVI melanoma, in the assay on RPMI-8226 leukemia and in the assay on 786-0 renal was more than 100 µM throughout. Moreover, the TGI in the assay on ACHN renal, with CAKI-1 renal, with OVCAR-5 ovarian, with HOP-92 NSCLC, in the assay with HOP-62 NSCLC and in the assay with MALME-3M melanoma was more than 100 µM in each case. The TGI in the assay on IGROV1 ovarian and in the assay with U251 CNS was more than 100 µM in each case.

For `[N-]=[N+]=NC1(c2ccccc2)C(=O)C(Cl)=C(c2ccccc2)N(c2ccccc2)C1=O` (stereo unspecified), the TGI with SK-MEL-5 melanoma, in the assay with MOLT-4 leukemia, in the assay with COLO 205 colon, in the assay on LOX IMVI melanoma, in the assay with 786-0 renal and in the assay on ACHN renal was more than 100 µM each time. The TGI in the assay on CAKI-1 renal, in the assay with OVCAR-5 ovarian, in the assay with HOP-92 NSCLC, with HOP-62 NSCLC, in the assay with MALME-3M melanoma and with IGROV1 ovarian was more than 100 µM in each case. In addition, the TGI with A498 renal and with U251 CNS was more than 100 µM in each case.

With `N#Cc1cc2c(cc1C#N)/C(=N\c1cccc(N)n1)N=C2Nc1cccc(N)n1`, the TGI in the assay with SK-MEL-5 melanoma was 22.1 µM; in the assay with MDA-MB-231 breast, 40.9 µM; in the assay with MOLT-4 leukemia, more than 100 µM; in the assay with COLO 205 colon, 51.9 µM; in the assay with LOX IMVI melanoma it was more than 100 µM; with RPMI-8226 leukemia it was more than 100 µM. In addition, the TGI in the assay with 786-0 renal was 30.6 µM; in the assay with ACHN renal, 57.3 µM; with CAKI-1 renal it was 34.1 µM; in the assay on OVCAR-5 ovarian it was more than 100 µM; in the assay with HOP-62 NSCLC it was 70.2 µM; with MALME-3M melanoma, 84.1 µM. For the same compound, the TGI with IGROV1 ovarian, with U251 CNS and in the assay with NCI-H226 lung was more than 100 µM throughout.

As to `COc1cc2c(cc1OC)C1c3ccccc3CCN1CCC2` (stereo unspecified), the TGI in the assay with SK-MEL-5 melanoma, with MDA-MB-231 breast, in the assay on MOLT-4 leukemia, in the assay with COLO 205 colon, in the assay with LOX IMVI melanoma and in the assay on RPMI-8226 leukemia was more than 100 µM in each case. The TGI in the assay with 786-0 renal, with ACHN renal, with CAKI-1 renal, in the assay with OVCAR-5 ovarian, in the assay with HOP-62 NSCLC and with MALME-3M melanoma was more than 100 µM in each case. For the same compound, the TGI in the assay on IGROV1 ovarian, in the assay with U251 CNS and in the assay with NCI-H226 lung was more than 100 µM each time.

In the case of `O=C1CNC(=O)/C(=C/c2c[nH]c3ccccc23)N1`, the TGI with SK-MEL-5 melanoma, in the assay on MOLT-4 leukemia, in the assay on LOX IMVI melanoma, in the assay on RPMI-8226 leukemia, in the assay with 786-0 renal and in the assay with ACHN renal was more than 100 µM throughout. Besides, the TGI with CAKI-1 renal, in the assay on OVCAR-5 ovarian, in the assay with HOP-92 NSCLC, in the assay with HOP-62 NSCLC, in the assay with MALME-3M melanoma and in the assay with IGROV1 ovarian was more than 100 µM throughout. Also, the TGI in the assay on A498 renal and in the assay with NCI-H226 lung was more than 100 µM each time.

Take `O=c1[nH]c2cc([N+](=O)[O-])ccc2nc1/C(=N/Nc1ccccc1)C(O)c1ccco1` (stereo unspecified): the TGI with SK-MEL-5 melanoma, with MOLT-4 leukemia, in the assay with COLO 205 colon, in the assay with LOX IMVI melanoma, with RPMI-8226 leukemia and in the assay with 786-0 renal was more than 100 µM throughout. For the same compound, the TGI in the assay on ACHN renal, in the assay with CAKI-1 renal, with HOP-62 NSCLC, in the assay with MALME-3M melanoma, in the assay with IGROV1 ovarian and in the assay with A498 renal was more than 100 µM in each case. Also, the TGI is more than 100 µM in the assay with U251 CNS and 76.1 µM in the assay on NCI-H226 lung.

Take `COc1cc2c(oc(=O)c3c4occc4cc(OC)c23)c2cccc(OCc3ccccc3)c12`: the TGI in the assay on SK-MEL-5 melanoma, in the assay on MOLT-4 leukemia, in the assay with COLO 205 colon, in the assay on LOX IMVI melanoma, with RPMI-8226 leukemia and in the assay on 786-0 renal was more than 100 µM each time. Also, the TGI in the assay with ACHN renal, in the assay with CAKI-1 renal, in the assay on OVCAR-5 ovarian, in the assay with HOP-92 NSCLC, with HOP-62 NSCLC and in the assay with MALME-3M melanoma was more than 100 µM each time. In addition, the TGI with IGROV1 ovarian was more than 100 µM; in the assay with A498 renal, 83.4 µM; in the assay on U251 CNS it was more than 100 µM; in the assay with NCI-H226 lung it was more than 100 µM.

Take `CCOC(=O)C(C)Sc1nnc(COc2ccc(Cl)cc2)n1-c1ccccc1` (stereo unspecified): the TGI in the assay with SK-MEL-5 melanoma was 35.8 µM; with COLO 205 colon, 33.2 µM; in the assay with LOX IMVI melanoma, 27.4 µM; in the assay on RPMI-8226 leukemia, 45.7 µM; in the assay on 786-0 renal, 71.2 µM; with ACHN renal, 31.6 µM. Also, the TGI in the assay with CAKI-1 renal worked out at 31.7 µM; in the assay on OVCAR-5 ovarian it was 94.8 µM; in the assay with HOP-92 NSCLC, 44 µM; with HOP-62 NSCLC, 37.5 µM; in the assay with MALME-3M melanoma, 63.6 µM; with IGROV1 ovarian it was 50.3 µM. Besides, the TGI with U251 CNS turned out to be 35.1 µM; in the assay on NCI-H226 lung it was 46.9 µM.
